Measured values taken from PubChem BioAssay (NCI).
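Exposure lasted 48 hours, with cells grown in 96-well plates and compounds tested at five concentrations. The concentration for full growth arrest is given as TGI.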

Legend:
Test in all cases: NCI-60 cell line screen, 48 h
NCI-H23 lung = tested on: NCI-H23 lung
CAKI-1 renal = tested on: CAKI-1 renal
HOP-92 NSCLC = tested on: HOP-92 NSCLC
ACHN renal = tested on: ACHN renal
HOP-62 NSCLC = tested on: HOP-62 NSCLC
A549 NSCLC = tested on: A549 NSCLC
HT29 colon = tested on: HT29 colon
T-47D breast = tested on: T-47D breast
COLO 205 colon = tested on: COLO 205 colon
UACC-257 melanoma = tested on: UACC-257 melanoma
M14 melanoma = tested on: M14 melanoma
UACC-62 melanoma = tested on: UACC-62 melanoma
MDA-MB-435 = tested on: MDA-MB-435
NCI/ADR-RES ovarian = tested on: NCI/ADR-RES ovarian
K-562 leukemia = tested on: K-562 leukemia
PC-3 prostate = tested on: PC-3 prostate
OVCAR-4 ovarian = tested on: OVCAR-4 ovarian
LOX IMVI melanoma = tested on: LOX IMVI melanoma
U251 CNS = tested on: U251 CNS
HCT-116 colon = tested on: HCT-116 colon
MCF7 breast = tested on: MCF7 breast
SK-MEL-2 melanoma = tested on: SK-MEL-2 melanoma
CCRF-CEM leukemia = tested on: CCRF-CEM leukemia
RXF 393 renal = tested on: RXF 393 renal
SW-620 colon = tested on: SW-620 colon
NCI-H226 lung = tested on: NCI-H226 lung
SF-268 CNS = tested on: SF-268 CNS
NCI-H460 lung = tested on: NCI-H460 lung
SK-MEL-5 melanoma = tested on: SK-MEL-5 melanoma
MOLT-4 leukemia = tested on: MOLT-4 leukemia
HS 578T breast = tested on: HS 578T breast
SNB-19 CNS = tested on: SNB-19 CNS
SF-295 CNS = tested on: SF-295 CNS
KM12 colon = tested on: KM12 colon
MDA-MB-231 breast = tested on: MDA-MB-231 breast
IGROV1 ovarian = tested on: IGROV1 ovarian
MALME-3M melanoma = tested on: MALME-3M melanoma
HL-60(TB) leukemia = tested on: HL-60(TB) leukemia
RPMI-8226 leukemia = tested on: RPMI-8226 leukemia
786-0 renal = tested on: 786-0 renal
SF-539 CNS = tested on: SF-539 CNS
OVCAR-8 ovarian = tested on: OVCAR-8 ovarian
SNB-75 CNS = tested on: SNB-75 CNS
NCI-H522 lung = tested on: NCI-H522 lung
BT-549 breast = tested on: BT-549 breast
OVCAR-3 ovarian = tested on: OVCAR-3 ovarian
UO-31 renal = tested on: UO-31 renal
HCT-15 colon = tested on: HCT-15 colon
TK-10 renal = tested on: TK-10 renal
EKVX NSCLC = tested on: EKVX NSCLC
A498 renal = tested on: A498 renal
MDA-N = tested on: MDA-N
SK-OV-3 ovarian = tested on: SK-OV-3 ovarian
OVCAR-5 ovarian = tested on: OVCAR-5 ovarian

Measured: TGI

O=C1CCCNn2c(nc3ncccc3c2=O)N1
> 100 µM: NCI-H23 lung | CAKI-1 renal | HOP-92 NSCLC | ACHN renal | HOP-62 NSCLC | A549 NSCLC | HT29 colon | T-47D breast | COLO 205 colon | UACC-257 melanoma | M14 melanoma | UACC-62 melanoma | MDA-MB-435 | NCI/ADR-RES ovarian | K-562 leukemia | PC-3 prostate | OVCAR-4 ovarian | LOX IMVI melanoma | U251 CNS | HCT-116 colon | MCF7 breast | SK-MEL-2 melanoma | CCRF-CEM leukemia | RXF 393 renal | SW-620 colon | NCI-H226 lung | SF-268 CNS | NCI-H460 lung | SK-MEL-5 melanoma | MOLT-4 leukemia | HS 578T breast | SNB-19 CNS | SF-295 CNS | KM12 colon | MDA-MB-231 breast | IGROV1 ovarian | MALME-3M melanoma | HL-60(TB) leukemia | RPMI-8226 leukemia | 786-0 renal | SF-539 CNS | OVCAR-8 ovarian | SNB-75 CNS | NCI-H522 lung | BT-549 breast | OVCAR-3 ovarian | UO-31 renal | HCT-15 colon | TK-10 renal | EKVX NSCLC | A498 renal | MDA-N | SK-OV-3 ovarian | OVCAR-5 ovarian
